In the supplement of paper PMC10307832:

Experiments:
Assay in all cases: relative viability (nuclei count vs DMSO), 5 days (fraction); higher = more cells survive
17-AAG + Dasatinib = compound: C=CCNC1=C2C[C@@H](C)C[C@H](OC)[C@H](O)[C@@H](C)/C=C(\C)[C@H](OC(N)=O)[C@@H](OC)/C=C\C=C(/C)C(=O)NC(=CC1=O)C2=O [17-AAG] + Cc1nc(Nc2ncc(C(=O)Nc3c(C)cccc3Cl)s2)cc(N2CCN(CCO)CC2)n1 [Dasatinib] (partner 0.075 µM)
Method in brief: (§1)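 Nuclei were stained with Hoechst during a one-step fixation (final 0.05% Triton X-100, 1% formaldehyde, 1 ug/ml Hoechst) carried out 5 days after dosing, then counted on 4× images. The cells, lung cancer lines in 1536-well plates, had been dosed by pin tool the day after seeding with one drug alone or a fixed anchor-drug dose plus five library-drug doses (not always all listed) in √10 steps. Relative viability is the nuclei count in treated wells divided by that in vehicle wells, and each value is the median of duplicate plates.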

17-AAG + Pemetrexed = compound: C=CCNC1=C2C[C@@H](C)C[C@H](OC)[C@H](O)[C@@H](C)/C=C(\C)[C@H](OC(N)=O)[C@@H](OC)/C=C\C=C(/C)C(=O)NC(=CC1=O)C2=O [17-AAG] + Nc1nc2[nH]cc(CCc3ccc(C(=O)N[C@@H](CCC(=O)O)C(=O)O)cc3)c2c(=O)[nH]1 [Pemetrexed] (partner 0.2 µM)
Method in brief: as §1

17-AAG + Crizotinib = compound: C=CCNC1=C2C[C@@H](C)C[C@H](OC)[C@H](O)[C@@H](C)/C=C(\C)[C@H](OC(N)=O)[C@@H](OC)/C=C\C=C(/C)C(=O)NC(=CC1=O)C2=O [17-AAG] + C[C@@H](Oc1cc(-c2cnn(C3CCNCC3)c2)cnc1N)c1c(Cl)ccc(F)c1Cl [Crizotinib] (partner 1 µM)
Method in brief: as §1

17-AAG + Lapatinib = compound: C=CCNC1=C2C[C@@H](C)C[C@H](OC)[C@H](O)[C@@H](C)/C=C(\C)[C@H](OC(N)=O)[C@@H](OC)/C=C\C=C(/C)C(=O)NC(=CC1=O)C2=O [17-AAG] + CS(=O)(=O)CCNCc1ccc(-c2ccc3ncnc(Nc4ccc(OCc5cccc(F)c5)c(Cl)c4)c3c2)o1 [Lapatinib] (partner 2 µM)
Method in brief: as §1

Cell Line	relative viability (17-AAG + Dasatinib; first compound 0.00128 µM)	relative viability (17-AAG + Dasatinib; first compound 0.004048 µM)	relative viability (17-AAG + Dasatinib; first compound 0.0128 µM)	relative viability (17-AAG + Dasatinib; first compound 0.04048 µM)	relative viability (17-AAG + Dasatinib; first compound 0.128 µM)	relative viability (17-AAG + Pemetrexed; first compound 0.00128 µM)	relative viability (17-AAG + Pemetrexed; first compound 0.004048 µM)	relative viability (17-AAG + Pemetrexed; first compound 0.0128 µM)	relative viability (17-AAG + Pemetrexed; first compound 0.04048 µM)	relative viability (17-AAG + Pemetrexed; first compound 0.128 µM)	relative viability (17-AAG + Crizotinib; first compound 0.00128 µM)	relative viability (17-AAG + Crizotinib; first compound 0.004048 µM)	relative viability (17-AAG + Crizotinib; first compound 0.0128 µM)	relative viability (17-AAG + Crizotinib; first compound 0.04048 µM)	relative viability (17-AAG + Crizotinib; first compound 0.128 µM)	relative viability (17-AAG + Lapatinib; first compound 0.00128 µM)	relative viability (17-AAG + Lapatinib; first compound 0.004048 µM)	relative viability (17-AAG + Lapatinib; first compound 0.0128 µM)	relative viability (17-AAG + Lapatinib; first compound 0.04048 µM)	relative viability (17-AAG + Lapatinib; first compound 0.128 µM)
LK-2	0.285	0.396	0.224	0.157	0.116	0.266	0.292	0.211	0.101	0.0875	0.212	0.249	0.357	0.232	0.176	1.04	1.01	0.752	0.464	0.158
HCC-366	0.726	0.654	0.0387	0.0326	0.0293	0.207	0.311	0.127	0.0359	0.0398	0.463	0.506	0.0283	0.018	0.0156	0.858	0.691	0.0214	0.0204	0.0219
HOP-62	0.685	0.683	0.485	0.175	0.1	0.409	0.314	0.271	0.127	0.109	0.938	1.04	1.02	0.935	0.248	0.875	1.03	0.634	0.12	0.0921
NCI-H1944	0.198	0.199	0.175	0.158	0.15	0.601	0.561	0.357	0.266	0.131	1.01	1.18	1.02	0.799	0.289	0.795	0.889	0.646	0.482	0.169
UMC-11	0.464	0.455	0.376	0.232	0.162	0.793	0.741	0.576	0.246	0.183	0.717	0.58	0.399	0.148	0.0804	0.887	0.992	0.566	0.204	0.127
LU99A	0.508	0.387	0.283	0.13	0.0659	0.175	0.184	0.165	0.188	0.111	0.588	0.512	0.331	0.184	0.134	0.885	0.965	0.323	0.288	0.141
NCI-H650	0.427	0.468	0.4	0.256	0.136	1.03	0.895	0.91	0.657	0.236	0.759	0.685	0.6	0.476	0.134	0.982	1.05	0.62	0.333	0.215
